Data: ChEMBL document CHEMBL1275577, “Study of the in vitro activities of rifaximin and comparator agents against 536 anaerobic intestinal bacteria from the perspective of potential utility in pathology involving bowel flora” (Antimicrob Agents Chemother, 2009)
≈ marks a conversion by molar mass, not a printed value.

Key:
Clostridium tertium = assay: Antimicrobial activity against Clostridium tertium by Wadsworth agar dilution method; assay type: functional
Bacteroides ovatus = assay: Antimicrobial activity against Bacteroides ovatus by Wadsworth agar dilution method; assay type: functional
Hoylesella loescheii = assay: Antimicrobial activity against Prevotella loescheii by Wadsworth agar dilution method; assay type: functional
Prevotella bivia = assay: Antimicrobial activity against Prevotella bivia by Wadsworth agar dilution method; assay type: functional
[1] = system: Paraclostridium bifermentans; assay: Antimicrobial activity against Clostridium bifermentans by Wadsworth agar dilution method; assay type: functional
Clostridium spiroforme = assay: Antimicrobial activity against Clostridium spiroforme by Wadsworth agar dilution method; assay type: functional; settings: Thomasclavelia spiroformis
[2] = system: Enterocloster clostridioformis; assay: Antimicrobial activity against Clostridium clostridioforme by Wadsworth agar dilution method; assay type: functional
Desulfovibrio vulgaris = assay: Antimicrobial activity against Desulfovibrio vulgaris by Wadsworth agar dilution method; assay type: functional; settings: Nitratidesulfovibrio vulgaris
[3] = system: Pseudoramibacter alactolyticus; assay: Antimicrobial activity against Eubacterium alactolyticum by Wadsworth agar dilution method; assay type: functional
Clostridium cocleatum = assay: Antimicrobial activity against Clostridium cocleatum by Wadsworth agar dilution method; assay type: functional; settings: Thomasclavelia cocleata
Fusobacterium mortiferum = assay: Antimicrobial activity against Clostridium rectum by Wadsworth agar dilution method; assay type: functional
Propionibacterium avidum = assay: Antimicrobial activity against Propionibacterium avidum by Wadsworth agar dilution method; assay type: functional; settings: Cutibacterium avidum
[4] = system: Bifidobacterium pseudolongum; assay: Antimicrobial activity against Bifidobacterium pseudolongum by Wadsworth agar dilution method; assay type: functional
Atopobium minutum = assay: Antimicrobial activity against Atopobium minutum by Wadsworth agar dilution method; assay type: functional
Bifidobacterium longum = assay: Antimicrobial activity against Bifidobacterium longum by Wadsworth agar dilution method; assay type: functional
[5] = system: Prevotella melaninogenica; assay: Antimicrobial activity against Prevotella melaninogenica by Wadsworth agar dilution method; assay type: functional
Thomasclavelia ramosa = assay: Antimicrobial activity against Clostridium ramosum by Wadsworth agar dilution method; assay type: functional
Porphyromonas somerae = assay: Antimicrobial activity against Porphyromonas somerae by Wadsworth agar dilution method; assay type: functional
Clostridium beijerinckii = assay: Antimicrobial activity against Clostridium beijerinckii by Wadsworth agar dilution method; assay type: functional
Holdemania filiformis = assay: Antimicrobial activity against Holdemania filiformis by Wadsworth agar dilution method; assay type: functional
Actinomyces viscosus = assay: Antimicrobial activity against Actinomyces viscosus by Wadsworth agar dilution method; assay type: functional
[6] = system: Paeniclostridium sordellii; assay: Antimicrobial activity against Clostridium sordellii by Wadsworth agar dilution method; assay type: functional; settings: Paraclostridium sordellii
Eubacterium rectale = assay: Antimicrobial activity against Eubacterium rectale by Wadsworth agar dilution method; assay type: functional; settings: Agathobacter rectalis
Clostridium sp. = assay: Antimicrobial activity against Clostridium sp. by Wadsworth agar dilution method; assay type: functional
Eggerthella lenta = assay: Antimicrobial activity against Eggerthella lenta by Wadsworth agar dilution method; assay type: functional
Clostridium cadaveris = assay: Antimicrobial activity against Clostridium cadaveris by Wadsworth agar dilution method; assay type: functional
Lactobacillus jensenii = assay: Antimicrobial activity against Lactobacillus jensenii by Wadsworth agar dilution method; assay type: functional
Anaerococcus tetradius = assay: Antimicrobial activity against Anaerococcus tetradius by Wadsworth agar dilution method; assay type: functional
[7] = system: Limosilactobacillus fermentum; assay: Antimicrobial activity against Lactobacillus fermentum by Wadsworth agar dilution method; assay type: functional
Eubacterium saburreum = assay: Antimicrobial activity against Eubacterium saburreum by Wadsworth agar dilution method; assay type: functional; settings: Lachnoanaerobaculum saburreum
[8] = system: Ruminococcus flavefaciens; assay: Antimicrobial activity against Ruminococcus flavefaciens by Wadsworth agar dilution method; assay type: functional
Parabacteroides merdae = assay: Antimicrobial activity against Parabacteroides merdae by Wadsworth agar dilution method; assay type: functional
Ruminococcus obeum = assay: Antimicrobial activity against Ruminococcus obeum by Wadsworth agar dilution method; assay type: functional; settings: Blautia obeum
[9] = Antimicrobial activity against Bifidobacterium infantis by Wadsworth agar dilution method; assay type: functional, Bifidobacterium longum subsp. infantis; settings: Bifidobacterium longum
Clostridium leptum = assay: Antimicrobial activity against Clostridium leptum by Wadsworth agar dilution method; assay type: functional
[10] = system: Lactiplantibacillus plantarum; assay: Antimicrobial activity against Lactobacillus plantarum by Wadsworth agar dilution method; assay type: functional
Eubacterium cylindroides = assay: Antimicrobial activity against Eubacterium cylindroides by Wadsworth agar dilution method; assay type: functional; settings: Faecalitalea cylindroides
Eubacterium biforme = assay: Antimicrobial activity against Eubacterium biforme by Wadsworth agar dilution method; assay type: functional; settings: Holdemanella biformis
[11] = system: Peptostreptococcus anaerobius; assay: Antimicrobial activity against Peptostreptococcus anaerobius by Wadsworth agar dilution method; assay type: functional
Bacteroides stercoris = assay: Antimicrobial activity against Bacteroides stercoris by Wadsworth agar dilution method; assay type: functional
[12] = system: Bacteroides thetaiotaomicron; assay: Antimicrobial activity against Bacteroides thetaiotaomicron by Wadsworth agar dilution method; assay type: functional
Tissierella praeacuta = assay: Antimicrobial activity against Clostridium hastiforme by Wadsworth agar dilution method; assay type: functional
Ruminococcus torques = assay: Antimicrobial activity against Ruminococcus torques by Wadsworth agar dilution method; assay type: functional; settings: Mediterraneibacter torques
Bacteroides nordii = assay: Antimicrobial activity against Bacteroides nordii by Wadsworth agar dilution method; assay type: functional
Clostridium septicum = assay: Antimicrobial activity against Clostridium septicum by Wadsworth agar dilution method; assay type: functional
[13] = system: Catenibacterium mitsuokai; assay: Antimicrobial activity against Catenibacterium mitsuokai by Wadsworth agar dilution method; assay type: functional
[14] = system: Bifidobacterium adolescentis; assay: Antimicrobial activity against Bifidobacterium adolescentis by Wadsworth agar dilution method; assay type: functional
Cutibacterium acnes = assay: Antimicrobial activity against Propionibacterium acnes by Wadsworth agar dilution method; assay type: functional

`CN[C@H](CC(C)C)C(=O)N[C@H]1C(=O)N[C@@H](CC(N)=O)C(=O)N[C@H]2C(=O)N[C@H]3C(=O)N[C@H](C(=O)N[C@H](C(=O)O)c4cc(O)cc(O)c4-c4cc3ccc4O)[C@H](O)c3ccc(c(Cl)c3)Oc3cc2cc(c3O[C@@H]2O[C@H](CO)[C@@H](O)[C@H](O)[C@H]2O[C@H]2C[C@](C)(N)[C@H](O)[C@H](C)O2)Oc2ccc(cc2Cl)[C@H]1O` [VANCOMYCIN] gave an MIC50 (Clostridium tertium) of 1 µg/mL (≈ 0.69 µM), an MIC90 (Clostridium tertium) of 4 µg/mL (≈ 2.76 µM) and an MIC50 (Bacteroides ovatus) of 128 µg/mL (≈ 88.3 µM). The MIC90 (Bacteroides ovatus) was 128 µg/mL (≈ 88.3 µM), the MIC50 (Hoylesella loescheii) was 128 µg/mL (≈ 88.3 µM) and the MIC90 (Hoylesella loescheii) was 256 µg/mL (≈ 177 µM). For the same molecule, the MIC50 (Prevotella bivia) was 128 µg/mL (≈ 88.3 µM), the MIC90 (Prevotella bivia) was 256 µg/mL (≈ 177 µM) and the MIC50 [1] was 1 µg/mL (≈ 0.69 µM). It also gave an MIC90 [1] of 4 µg/mL (≈ 2.76 µM), an MIC50 (Clostridium spiroforme) of 1 µg/mL (≈ 0.69 µM) and an MIC90 (Clostridium spiroforme) of 4 µg/mL (≈ 2.76 µM). The MIC50 [2] was 2 µg/mL (≈ 1.38 µM), the MIC90 [2] was 2 µg/mL (≈ 1.38 µM) and the MIC50 (Desulfovibrio vulgaris) was greater than 1020 µg/mL. The MIC90 (Desulfovibrio vulgaris) was greater than 1020 µg/mL, the MIC50 [3] was 1 µg/mL (≈ 0.69 µM) and the MIC90 [3] was 64 µg/mL (≈ 44.2 µM). The MIC50 (Clostridium cocleatum) was 1 µg/mL (≈ 0.69 µM), the MIC90 (Clostridium cocleatum) was 4 µg/mL (≈ 2.76 µM) and the MIC50 (Fusobacterium mortiferum) was 1 µg/mL (≈ 0.69 µM). For the same molecule, the MIC90 (Fusobacterium mortiferum) was 4 µg/mL (≈ 2.76 µM), the MIC50 (Propionibacterium avidum) was 1 µg/mL (≈ 0.69 µM) and the MIC90 (Propionibacterium avidum) was 64 µg/mL (≈ 44.2 µM). For the same molecule, the MIC50 [4] was 1 µg/mL (≈ 0.69 µM), the MIC90 [4] was 64 µg/mL (≈ 44.2 µM) and the MIC50 (Atopobium minutum) was 1 µg/mL (≈ 0.69 µM). The MIC90 (Atopobium minutum) was 64 µg/mL (≈ 44.2 µM), the MIC50 (Bifidobacterium longum) was 1 µg/mL (≈ 0.69 µM) and the MIC90 (Bifidobacterium longum) was 64 µg/mL (≈ 44.2 µM). For the same molecule, the MIC50 [5] was 128 µg/mL (≈ 88.3 µM), the MIC90 [5] was 256 µg/mL (≈ 177 µM) and the MIC50 (Thomasclavelia ramosa) was 1 µg/mL (≈ 0.69 µM). For the same molecule, the MIC90 (Thomasclavelia ramosa) was 4 µg/mL (≈ 2.76 µM), the MIC50 (Porphyromonas somerae) was 4 µg/mL (≈ 2.76 µM) and the MIC90 (Porphyromonas somerae) was 8 µg/mL (≈ 5.52 µM). For the same molecule, the MIC50 (Clostridium beijerinckii) was 1 µg/mL (≈ 0.69 µM), the MIC90 (Clostridium beijerinckii) was 4 µg/mL (≈ 2.76 µM) and the MIC50 (Holdemania filiformis) was 1 µg/mL (≈ 0.69 µM). For the same molecule, the MIC90 (Holdemania filiformis) was 64 µg/mL (≈ 44.2 µM), the MIC50 (Actinomyces viscosus) was 1 µg/mL (≈ 0.69 µM) and the MIC90 (Actinomyces viscosus) was 64 µg/mL (≈ 44.2 µM). The MIC50 [6] was 1 µg/mL (≈ 0.69 µM), the MIC90 [6] was 4 µg/mL (≈ 2.76 µM) and the MIC50 (Eubacterium rectale) was 1 µg/mL (≈ 0.69 µM). It also gave an MIC90 (Eubacterium rectale) of 64 µg/mL (≈ 44.2 µM), an MIC50 (Clostridium sp.) of 1 µg/mL (≈ 0.69 µM) and an MIC90 (Clostridium sp.) of 4 µg/mL (≈ 2.76 µM). It also gave an MIC50 (Eggerthella lenta) of 1 µg/mL (≈ 0.69 µM), an MIC90 (Eggerthella lenta) of 64 µg/mL (≈ 44.2 µM) and an MIC50 (Clostridium cadaveris) of 1 µg/mL (≈ 0.69 µM). For the same molecule, the MIC90 (Clostridium cadaveris) was 4 µg/mL (≈ 2.76 µM), the MIC50 (Lactobacillus jensenii) was 1 µg/mL (≈ 0.69 µM) and the MIC90 (Lactobacillus jensenii) was 64 µg/mL (≈ 44.2 µM). The MIC50 (Anaerococcus tetradius) was 0.5 µg/mL (≈ 0.345 µM), the MIC90 (Anaerococcus tetradius) was 1 µg/mL (≈ 0.69 µM) and the MIC50 [7] was 1 µg/mL (≈ 0.69 µM). It also gave an MIC90 [7] of 64 µg/mL (≈ 44.2 µM), an MIC50 (Eubacterium saburreum) of 1 µg/mL (≈ 0.69 µM) and an MIC90 (Eubacterium saburreum) of 64 µg/mL (≈ 44.2 µM). For the same molecule, the MIC50 [8] was 0.5 µg/mL (≈ 0.345 µM), the MIC90 [8] was 1 µg/mL (≈ 0.69 µM) and the MIC50 (Parabacteroides merdae) was 128 µg/mL (≈ 88.3 µM). For the same molecule, the MIC90 (Parabacteroides merdae) was 128 µg/mL (≈ 88.3 µM), the MIC50 (Ruminococcus obeum) was 0.5 µg/mL (≈ 0.345 µM) and the MIC90 (Ruminococcus obeum) was 1 µg/mL (≈ 0.69 µM). The MIC50 [9] was 1 µg/mL (≈ 0.69 µM), the MIC90 [9] was 64 µg/mL (≈ 44.2 µM) and the MIC50 (Clostridium leptum) was 1 µg/mL (≈ 0.69 µM). The MIC90 (Clostridium leptum) was 4 µg/mL (≈ 2.76 µM), the MIC50 [10] was 1 µg/mL (≈ 0.69 µM) and the MIC90 [10] was 64 µg/mL (≈ 44.2 µM). For the same molecule, the MIC50 (Eubacterium cylindroides) was 1 µg/mL (≈ 0.69 µM), the MIC90 (Eubacterium cylindroides) was 64 µg/mL (≈ 44.2 µM) and the MIC50 (Eubacterium biforme) was 1 µg/mL (≈ 0.69 µM). The MIC90 (Eubacterium biforme) was 64 µg/mL (≈ 44.2 µM), the MIC50 [11] was 0.5 µg/mL (≈ 0.345 µM) and the MIC90 [11] was 1 µg/mL (≈ 0.69 µM). The MIC (Bacteroides stercoris) was 64 µg/mL (≈ 44.2 µM), the MIC50 (Bacteroides stercoris) was 64 µg/mL (≈ 44.2 µM) and the MIC90 (Bacteroides stercoris) was 128 µg/mL (≈ 88.3 µM). For the same molecule, the MIC50 [12] was 128 µg/mL (≈ 88.3 µM), the MIC90 [12] was 256 µg/mL (≈ 177 µM) and the MIC50 (Tissierella praeacuta) was 1 µg/mL (≈ 0.69 µM). For the same molecule, the MIC90 (Tissierella praeacuta) was 4 µg/mL (≈ 2.76 µM), the MIC50 (Ruminococcus torques) was 0.5 µg/mL (≈ 0.345 µM) and the MIC90 (Ruminococcus torques) was 1 µg/mL (≈ 0.69 µM). It also gave an MIC (Bacteroides nordii) of 64 µg/mL (≈ 44.2 µM), an MIC50 (Bacteroides nordii) of 64 µg/mL (≈ 44.2 µM) and an MIC90 (Bacteroides nordii) of 128 µg/mL (≈ 88.3 µM). The MIC50 (Clostridium septicum) was 1 µg/mL (≈ 0.69 µM), the MIC90 (Clostridium septicum) was 4 µg/mL (≈ 2.76 µM) and the MIC50 [13] was 1 µg/mL (≈ 0.69 µM). It also gave an MIC90 [13] of 64 µg/mL (≈ 44.2 µM), an MIC50 [14] of 1 µg/mL (≈ 0.69 µM) and an MIC90 [14] of 64 µg/mL (≈ 44.2 µM). The MIC50 (Cutibacterium acnes) was 1 µg/mL (≈ 0.69 µM) and the MIC90 (Cutibacterium acnes) was 64 µg/mL (≈ 44.2 µM).
